pIC50: −log10 of the molar value.

What is called pIC50 is −log10 of the IC50, conventionally taken in molar units.

Experiment [1] concerns the target T1, AR-VP16 (Homo sapiens, UniProt P10275).
T1 sequence (P10275 560-920 limits assumed): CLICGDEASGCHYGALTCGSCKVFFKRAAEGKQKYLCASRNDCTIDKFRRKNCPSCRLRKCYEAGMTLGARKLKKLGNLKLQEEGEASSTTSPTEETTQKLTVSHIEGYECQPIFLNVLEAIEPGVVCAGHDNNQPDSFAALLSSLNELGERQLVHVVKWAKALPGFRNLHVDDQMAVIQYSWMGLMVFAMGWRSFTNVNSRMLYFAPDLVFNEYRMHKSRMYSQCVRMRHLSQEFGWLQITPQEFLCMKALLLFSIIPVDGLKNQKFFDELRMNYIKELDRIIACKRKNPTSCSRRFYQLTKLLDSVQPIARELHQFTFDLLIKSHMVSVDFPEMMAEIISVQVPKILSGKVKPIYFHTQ
Kind of experiment: AR-VP16 DNA Binding Assay, agonist mode (HepG2 cells). It counts as cell-based. The conditions noted are these: Emax >20x DMSO control = agonist.

The target of experiment [2] is T1, AR-VP16. Description: AR-VP16 DNA Binding Assay, antagonist mode (HepG2 cells, 0.1 nM R1881). It counts as cell-based. An outline of the steps: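 Transfected HepG2 cells expressing AR-VP16 received serially diluted compound in charcoal-stripped-serum RPMI the day after transfection, with 0.1 nM R1881 (final) added only for antagonist testing. After 48 h, cells were lysed for measurement.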

Regarding `CCOC(=O)CN1CCC(Oc2ccc(N3C(=S)N(c4cnc(C#N)c(C(F)(F)F)c4)C(=O)C34CCC4)cc2)CC1` [Compound 221, Ethyl 2-(4-(4-(7-(6-cyano-5-(trifluoromethyl)pyridin-3-yl)-8-oxo-6-thioxo-5,7-diazaspiro[3.4]octan-5-yl)phenoxy)piperidin-1-yl)acetate], at AR-VP16 [1], the “ARVP16 DNA Binding Assay (Agonist mode): Agonist?” value (from here on “ARVP16 DNA Binding Assay”) is listed as “No (Agonist defined as a compound whose Emax in the ARVP16 DNA Binding Assay (Agonist mode) is >20x DMSO control)”. The same compound had a pIC50 at AR-VP16 [2] below 6.00.
Take `N#Cc1ncc(N2C(=O)C3(CCC3)N(c3ccc(OC4CCN(C(N)=O)CC4)cc3)C2=S)cc1C(F)(F)F` [Compound 222, 4-(4-(7-(6-Cyano-5-(trifluoromethyl)pyridin-3-yl)-8-oxo-6-thioxo-5,7-diazaspiro[3.4]octan-5-yl)phenoxy)piperidine-1-carboxamide]: the “ARVP16 DNA Binding Assay” value at AR-VP16 [1] is listed as “Yes (Agonist defined as a compound whose Emax in the ARVP16 DNA Binding Assay (Agonist mode) is >20x DMSO control)”. Also, the pIC50 on AR-VP16 [2] was above 6.00.
For `Cc1cc(N2C(=O)C3(CCC3)N(c3ccc(OCCO)cc3)C2=S)cnc1C#N` [Compound 223, 5-(5-(4-(2-Hydroxyethoxy)phenyl)-8-oxo-6-thioxo-5,7-diazaspiro[3.4]octan-7-yl)-3-methylpicolinonitrile], on AR-VP16 [1], the “ARVP16 DNA Binding Assay” value is on record as “No (Agonist defined as a compound whose Emax in the ARVP16 DNA Binding Assay (Agonist mode) is >20x DMSO control)”. The compound further gave a pIC50 on AR-VP16 [2] above 6.00.
As for `N#Cc1ncc(N2C(=O)C3(CCC3)N(c3ccc(C(=O)O)c(F)c3)C2=S)cc1C(F)(F)F` [Compound 224, 4-(7-(6-Cyano-5-(trifluoromethyl)pyridin-3-yl)-8-oxo-6-thioxo-5,7-diazaspiro[3.4]octan-5-yl)-2-fluorobenzoic acid], the “ARVP16 DNA Binding Assay” value on AR-VP16 [1] is given as “No (Agonist defined as a compound whose Emax in the ARVP16 DNA Binding Assay (Agonist mode) is >20x DMSO control)”. At AR-VP16 [2], the pIC50 is below 6.00.
The corresponding values for `Cc1cc(N2C(=O)C3(CCC3)N(c3ccc(C(=O)O)c(F)c3)C2=S)cnc1C#N` [Compound 225, 4-(7-(6-Cyano-5-methylpyridin-3-yl)-8-oxo-6-thioxo-5,7-diazaspiro[3.4]octan-5-yl)-2-fluorobenzoic acid] are “No (Agonist defined as a compound whose Emax in the ARVP16 DNA Binding Assay (Agonist mode) is >20x DMSO control)” and above 6.00.
The corresponding values for `N#Cc1ncc(N2C(=O)C3(CCC3)N(c3ccc(F)c(C(=O)O)c3)C2=S)cc1C(F)(F)F` [Compound 226, 5-(7-(6-Cyano-5-(trifluoromethyl)pyridin-3-yl)-8-oxo-6-thioxo-5,7-diazaspiro[3.4]octan-5-yl)-2-fluorobenzoic acid] are “No (Agonist defined as a compound whose Emax in the ARVP16 DNA Binding Assay (Agonist mode) is >20x DMSO control)” and below 6.00.
As for `N#Cc1ncc(N2C(=O)C3(CCC3)N(c3ccc(CCCC(=O)O)cc3)C2=S)cc1C(F)(F)F` [Compound 227, 4-(4-(7-(6-cyano-5-(trifluoromethyl)pyridin-3-yl)-8-oxo-6-thioxo-5,7-diazaspiro[3.4]octan-5-yl)phenyl)butanoic acid], the “ARVP16 DNA Binding Assay” value at AR-VP16 [1] is “No (Agonist defined as a compound whose Emax in the ARVP16 DNA Binding Assay (Agonist mode) is >20x DMSO control)”. Further, the pIC50 at AR-VP16 [2] is below 6.00.
For `N#Cc1ncc(N2C(=O)C3(CCC3)N(c3ccc(OCC(=O)O)c(F)c3)C2=S)cc1C(F)(F)F` [Compound 228, 2-(4-(7-(6-Cyano-5-(trifluoromethyl)pyridin-3-yl)-8-oxo-6-thioxo-5,7-diazaspiro[3.4]octan-5-yl)-2-fluorophenoxy)acetic acid], at AR-VP16 [1], the “ARVP16 DNA Binding Assay” value was “No (Agonist defined as a compound whose Emax in the ARVP16 DNA Binding Assay (Agonist mode) is >20x DMSO control)”. In addition, the pIC50 on AR-VP16 [2] was below 6.00.
As to `NC(=O)c1ncc(N2C(=O)C3(CCC3)N(c3ccc(F)c(C(=O)O)c3)C2=S)cc1C(F)(F)F` [Compound 229, 5-(7-(6-Carbamoyl-5-(trifluoromethyl)pyridin-3-yl)-8-oxo-6-thioxo-5,7-diazaspiro[3.4]octan-5-yl)-2-fluorobenzoic acid], the “ARVP16 DNA Binding Assay” value on AR-VP16 [1] is “No (Agonist defined as a compound whose Emax in the ARVP16 DNA Binding Assay (Agonist mode) is >20x DMSO control)”. The same compound showed a pIC50 at AR-VP16 [2] above 6.00.
As for `N#Cc1ncc(N2C(=O)C3(CCC3)N(c3ccc(C(N)=O)c(F)c3)C2=S)cc1C(F)(F)F` [Compound 231, 4-(7-(6-Cyano-5-(trifluoromethyl)pyridin-3-yl)-8-oxo-6-thioxo-5,7-diazaspiro[3.4]octan-5-yl)-2-fluorobenzamide], the “ARVP16 DNA Binding Assay” value at AR-VP16 [1] was “No (Agonist defined as a compound whose Emax in the ARVP16 DNA Binding Assay (Agonist mode) is >20x DMSO control)”. The same compound showed a pIC50 on AR-VP16 [2] above 6.00.
Take `Cc1cc(N2C(=O)C3(CCC3)N(c3ccc(C(N)=O)c(F)c3)C2=S)cnc1C#N` [Compound 232, 4-(7-(6-Cyano-5-methylpyridin-3-yl)-8-oxo-6-thioxo-5,7-diazaspiro[3.4]octan-5-yl)-2-fluorobenzamide]: on AR-VP16 [1], the “ARVP16 DNA Binding Assay” value is given as “No (Agonist defined as a compound whose Emax in the ARVP16 DNA Binding Assay (Agonist mode) is >20x DMSO control)”. The pIC50 at AR-VP16 [2] is above 6.00.
The corresponding values for `Cc1cc(N2C(=S)N(c3cnc(C#N)c(C)c3)C(=O)C23CCC3)ccc1C(N)=O` [Compound 233, 4-(7-(6-Cyano-5-methylpyridin-3-yl)-8-oxo-6-thioxo-5,7-diazaspiro[3.4]octan-5-yl)-2-methylbenzamide] are “No (Agonist defined as a compound whose Emax in the ARVP16 DNA Binding Assay (Agonist mode) is >20x DMSO control)” and below 6.00.
On the same counts, the results for `N#Cc1ncc(N2C(=O)C3(CCC3)N(c3ccc(C(=O)NCCN4CCCC4)c(F)c3)C2=S)cc1C(F)(F)F` [Compound 234, 4-(7-(6-Cyano-5-(trifluoromethyl)pyridin-3-yl)-8-oxo-6-thioxo-5,7-diazaspiro[3.4]octan-5-yl)-2-fluoro-N-(2-(pyrrolidin-1-yl)ethyl)benzamide] are “No (Agonist defined as a compound whose Emax in the ARVP16 DNA Binding Assay (Agonist mode) is >20x DMSO control)” and below 6.00.
In the case of `N#Cc1ncc(N2C(=O)C3(CCC3)N(c3ccc(C(=O)NCCc4ccccn4)c(F)c3)C2=S)cc1C(F)(F)F` [Compound 236, 4-(7-(6-Cyano-5-(trifluoromethyl)pyridin-3-yl)-8-oxo-6-thioxo-5,7-diazaspiro[3.4]octan-5-yl)-2-fluoro-N-(2-(pyridin-2-yl)ethyl)benzamide], the “ARVP16 DNA Binding Assay” value at AR-VP16 [1] is listed as “No (Agonist defined as a compound whose Emax in the ARVP16 DNA Binding Assay (Agonist mode) is >20x DMSO control)”. The compound further showed a pIC50 on AR-VP16 [2] above 6.00.
The corresponding values for `N#Cc1ncc(N2C(=O)C3(CCC3)N(c3ccc(C(=O)NCCCN4CCCC4)c(F)c3)C2=S)cc1C(F)(F)F` [Compound 237, 4-(7-(6-Cyano-5-(trifluoromethyl)pyridin-3-yl)-8-oxo-6-thioxo-5,7-diazaspiro[3.4]octan-5-yl)-2-fluoro-N-(3-(pyrrolidin-1-yl)propyl)benzamide] are “No (Agonist defined as a compound whose Emax in the ARVP16 DNA Binding Assay (Agonist mode) is >20x DMSO control)” and above 6.00.
For the compound `N#Cc1ncc(N2C(=O)C3(CCC3)N(c3ccc(C(=O)NCCc4ccncc4)c(F)c3)C2=S)cc1C(F)(F)F` [Compound 238, 4-(7-(6-Cyano-5-(trifluoromethyl)pyridin-3-yl)-8-oxo-6-thioxo-5,7-diazaspiro[3.4]octan-5-yl)-2-fluoro-N-(2-(pyridin-4-yl)ethyl)benzamide], on AR-VP16 [1], the “ARVP16 DNA Binding Assay” value is “No (Agonist defined as a compound whose Emax in the ARVP16 DNA Binding Assay (Agonist mode) is >20x DMSO control)”. In addition, on AR-VP16 [2], the pIC50 is below 6.00.
As for `N#Cc1ncc(N2C(=O)C3(CCC3)N(c3ccc(F)c(C(=O)NCCc4ccccn4)c3)C2=S)cc1C(F)(F)F` [Compound 239, 5-(7-(6-Cyano-5-(trifluoromethyl)pyridin-3-yl)-8-oxo-6-thioxo-5,7-diazaspiro[3.4]octan-5-yl)-2-fluoro-N-(2-(pyridin-2-yl)ethyl)benzamide], the “ARVP16 DNA Binding Assay” value at AR-VP16 [1] is recorded as “No (Agonist defined as a compound whose Emax in the ARVP16 DNA Binding Assay (Agonist mode) is >20x DMSO control)”. On AR-VP16 [2], the pIC50 was below 6.00.
`N#Cc1ncc(N2C(=O)C3(CCC3)N(c3ccc(F)c(C(=O)NCCc4cccnc4)c3)C2=S)cc1C(F)(F)F` [Compound 240, 5-(7-(6-Cyano-5-(trifluoromethyl)pyridin-3-yl)-8-oxo-6-thioxo-5,7-diazaspiro[3.4]octan-5-yl)-2-fluoro-N-(2-(pyridin-3-yl)ethyl)benzamide]: the “ARVP16 DNA Binding Assay” value at AR-VP16 [1] is given as “No (Agonist defined as a compound whose Emax in the ARVP16 DNA Binding Assay (Agonist mode) is >20x DMSO control)”. At AR-VP16 [2], this compound gave a pIC50 below 6.00.
For `N#Cc1ncc(N2C(=O)C3(CCC3)N(c3ccc(F)c(C(=O)NCCc4ccncc4)c3)C2=S)cc1C(F)(F)F` [Compound 241, 5-(7-(6-Cyano-5-(trifluoromethyl)pyridin-3-yl)-8-oxo-6-thioxo-5,7-diazaspiro[3.4]octan-5-yl)-2-fluoro-N-(2-(pyridin-4-yl)ethyl)benzamide], the “ARVP16 DNA Binding Assay” value at AR-VP16 [1] was “No (Agonist defined as a compound whose Emax in the ARVP16 DNA Binding Assay (Agonist mode) is >20x DMSO control)”. The pIC50 at AR-VP16 [2] is below 6.00.

The record behind these values is patent US9108944B2, “Androgen receptor modulators and uses thereof” (ARAGON PHARMACEUTICALS, INC., priority 2010, dated 2015).
